Data published in article PMC9834408, “The SPOC domain is a phosphoserine binding module that bridges transcription machinery with co- and post-transcriptional regulators” (Nature Communications, 2023).
Where “and” joins values, the source holds several entries; their conditions need not be identical. Equal values may be shown once. Read-outs that look alike come from different tables or passages of the source. Blank lines part the entries; values can stand above or below the molecule they belong to. Where a SMILES comes first, the peptide text is derived from it. [ ]: non-standard residue; d: D form. The star is where a group is joined. 5FAM = O=C1OC2(c3ccc(O)cc3Oc3cc(O)ccc32)c2ccc(C(=O)*)cc21; pS = N[C@@H](COP(=O)(O)O)C(=O)O

Tests used:
[1] = biological target: T1, PHF3 SPOC (Homo sapiens, UniProt Q92576); test: Fluorescence anisotropy binding of labeled peptides to PHF3 SPOC WT
T1 construct: His6-PHF3 SPOC was generated previously; His6 (N, cleaved yes); made in house; host or cells: E. coli Rosetta2 (DE3)
Description: (§1) SPOC domains were expressed in E. coli Rosetta2 (DE3) cells (Novagen). ON cultures were diluted 1:50 in 2×TY, grown at 37 °C until OD600 = 0.8, and induced with 0.5 mM IPTG for 3 h at 30 °C. […] Elution with 25 mM Tris-Cl pH 7.4, 500 mM NaCl, and 500 mM Imidazole was followed by TEV cleavage of the His6-tag and size exclusion chromatography using Sephacryl S-200 HR 16/600 or 26/600 (Cytiva) equilibrated in 25 mM Tris-Cl pH 7.4, 25 mM NaCl, 1 mM DTT.
(§2) One molar equivalent of Atto-488 NHS ester (Atto-tec) and five equivalents of DIPEA (Sigma-Aldrich) was added to three equivalents of the peptide. Reactions were incubated ON at room temperature (RT) and protected from light. Labeled peptides were purified by reverse-phase HPLC over a C18 column (Agilent Technologies) using a gradient from 30 to 70% Methanol (Merck). Purified peptides were lyophilized and stored at −20 °C.
(§3) Fluorescence anisotropy measurements were performed on a Perkin Elmer LS50 B fluorescence spectrometer operated by Perkin Elmar FL WinLab software (version 3.00). The excitation wavelength was set to 500 nm (excitation slit 10 nm), the emission wavelength to 518 nm (emission slit 6 nm), and the integration time to 1 s. Measurements were conducted at 20 °C in 25 mM Tris-Cl pH 7.4, 25 mM NaCl, and 1 mM DTT. The grating factor was determined using unconjugated Atto-488 dye. […]

[2] = biological target: T2, PHF3 SPOC R1248A (Homo sapiens, UniProt Q92576, R1248A); test: Fluorescence anisotropy binding of labeled peptides to PHF3 SPOC R1248A; conditions: 90 nM labeled peptide, 25 mM Tris-Cl pH 7.4, 25 mM NaCl, 1 mM DTT, 20 °C, three independent experiments
T2 construct: His6-PHF3 SPOC was generated previously; His6 (N, cleaved yes); made in house; host or cells: E. coli Rosetta2 (DE3)
T2 sequence (Q92576 1199-1356 R1248A limits assumed): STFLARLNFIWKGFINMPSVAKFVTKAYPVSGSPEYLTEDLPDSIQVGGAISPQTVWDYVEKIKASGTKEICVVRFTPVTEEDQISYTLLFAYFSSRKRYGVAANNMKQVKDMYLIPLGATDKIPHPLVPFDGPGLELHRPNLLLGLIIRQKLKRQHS
Description: (§4) For mammalian expression, human DIDO3, SHARP, and RBM15 were amplified from HEK293T cDNA and cloned into CMV10 N3XFLAG (Sigma) by Gibson assembly (NEB). These constructs were used for cloning ΔSPOC truncations using Gibson assembly (NEB). CMV10 N3XFLAG-PHF3 and PHF3 ΔSPOC constructs were generated previously. NLS-SPOC constructs were cloned into CMV10 N3XFLAG (Sigma) between NotI and XbaI. NLS sequence ([…]) was introduced to ensure nuclear localization of the isolated SPOC domains. […] His6-PHF3 SPOC was generated previously. Arginine mutations were introduced by site-directed mutagenesis according to the FastCloning protocol. Repair templates for CRISPR/Cas9 knock-in were cloned by Gibson assembly. Primer sequences are listed in Supplementary Table 4.
(§5) SPOC domains were expressed in E. coli Rosetta2 (DE3) cells (Novagen). ON cultures were diluted 1:50 in 2×TY, grown at 37 °C until OD600 = 0.8, and induced with 0.5 mM IPTG for 3 h at 30 °C. […]
(§6) Fluorescence anisotropy measurements were performed on a Perkin Elmer LS50 B fluorescence spectrometer operated by Perkin Elmar FL WinLab software (version 3.00). […] The grating factor was determined using unconjugated Atto-488 dye. […]

[3] = biological target: T3, DIDO SPOC (Homo sapiens, UniProt Q9BTC0); test: Fluorescence anisotropy binding of labeled peptides to DIDO SPOC WT; conditions: 90 nM labeled peptide, 25 mM Tris-Cl pH 7.4, 25 mM NaCl, 1 mM DTT, 20 °C, three independent experiments
T3 construct: human DIDO3 SPOC (1047–1205 aa); His6 (N, cleaved yes); made in house; host or cells: E. coli Rosetta2 (DE3)
Description: as §4, §5, §6

[4] = biological target: T4, DIDO SPOC R1096A (Homo sapiens, UniProt Q9BTC0, R1096A); test: Fluorescence anisotropy binding of labeled peptides to DIDO SPOC R1096A; conditions: 90 nM labeled peptide, 25 mM Tris-Cl pH 7.4, 25 mM NaCl, 1 mM DTT, 20 °C, three independent experiments
T4 construct: human DIDO3 SPOC (1047–1205 aa); His6 (N, cleaved yes); made in house; host or cells: E. coli Rosetta2 (DE3)
T4 sequence (Q9BTC0 1047-1205 R1096A): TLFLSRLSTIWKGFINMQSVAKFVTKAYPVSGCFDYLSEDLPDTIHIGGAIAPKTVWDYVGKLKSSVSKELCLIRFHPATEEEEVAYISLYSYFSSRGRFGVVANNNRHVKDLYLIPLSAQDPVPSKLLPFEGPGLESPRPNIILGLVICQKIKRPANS
Description: as §4, §5, §6

[5] = biological target: T5, RBM15 SPOC (Homo sapiens, UniProt Q96T37); test: Fluorescence anisotropy binding of labeled peptides to RBM15 SPOC WT; conditions: 90 nM labeled peptide, 25 mM Tris-Cl pH 7.4, 25 mM NaCl, 1 mM DTT, 20 °C, three independent experiments
T5 construct: RBM15 SPOC (775–960 aa); His6 (N, cleaved yes); made in house; host or cells: E. coli Rosetta2 (DE3)
Description: as §4, §1, §2, §3

[6] = biological target: T6, SHARP SPOC (Homo sapiens, UniProt Q96T58); test: Fluorescence anisotropy binding of labeled peptides to SHARP SPOC WT; conditions: 90 nM labeled peptide, 25 mM Tris-Cl pH 7.4, 25 mM NaCl, 1 mM DTT, 20 °C, three independent experiments
T6 construct: SHARP SPOC (3496–3664 aa); His6 (N, cleaved yes); made in house; host or cells: E. coli Rosetta2 (DE3)

[7] = biological target: T7, SHARP SPOC R3552A (Homo sapiens, UniProt Q96T58, R3552A); test: Fluorescence anisotropy binding of labeled peptides to SHARP SPOC R3552A; conditions: 90 nM labeled peptide, 25 mM Tris-Cl pH 7.4, 25 mM NaCl, 1 mM DTT, 20 °C, three independent experiments
T7 construct: SHARP SPOC (3496–3664 aa); His6 (N, cleaved yes); made in house; host or cells: E. coli Rosetta2 (DE3)
T7 sequence (Q96T58 3496-3664 R3552A): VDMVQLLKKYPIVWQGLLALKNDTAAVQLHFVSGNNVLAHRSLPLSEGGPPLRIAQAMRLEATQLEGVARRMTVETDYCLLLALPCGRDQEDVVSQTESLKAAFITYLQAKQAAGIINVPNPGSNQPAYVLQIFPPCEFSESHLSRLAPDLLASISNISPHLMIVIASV
Description: as §4, §5, §6

T5 sequence (Q96T37 775-960): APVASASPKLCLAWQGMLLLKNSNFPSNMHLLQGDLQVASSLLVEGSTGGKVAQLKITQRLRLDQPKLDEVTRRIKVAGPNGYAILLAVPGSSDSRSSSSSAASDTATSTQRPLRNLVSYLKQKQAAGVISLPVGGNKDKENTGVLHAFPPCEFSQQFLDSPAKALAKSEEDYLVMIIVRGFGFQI
T1 sequence (Q92576 1199-1356 limits assumed): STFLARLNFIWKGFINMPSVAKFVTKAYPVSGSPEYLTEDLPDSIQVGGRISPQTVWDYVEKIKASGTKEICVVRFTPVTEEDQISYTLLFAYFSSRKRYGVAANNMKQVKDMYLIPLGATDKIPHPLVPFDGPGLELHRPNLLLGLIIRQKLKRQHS
T3 sequence (Q9BTC0 1047-1205): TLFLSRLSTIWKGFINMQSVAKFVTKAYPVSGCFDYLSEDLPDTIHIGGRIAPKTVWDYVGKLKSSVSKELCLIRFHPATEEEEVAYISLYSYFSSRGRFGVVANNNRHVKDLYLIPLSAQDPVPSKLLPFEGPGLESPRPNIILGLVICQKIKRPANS
T6 sequence (Q96T58 3496-3664): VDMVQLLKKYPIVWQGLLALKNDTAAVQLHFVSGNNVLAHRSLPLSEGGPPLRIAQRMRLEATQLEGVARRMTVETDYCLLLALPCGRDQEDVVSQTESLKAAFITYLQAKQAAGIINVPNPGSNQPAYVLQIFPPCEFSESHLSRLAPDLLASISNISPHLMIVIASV

SMILES: C[C@@H](O)[C@H](NC(=O)[C@@H]1CCCN1C(=O)[C@H](CO)NC(=O)[C@H](Cc1ccc(O)cc1)NC(=O)[C@H](CO)NC(=O)[C@@H]1CCCN1C(=O)[C@H](CO)NC(=O)[C@@H](NC(=O)[C@@H]1CCCN1C(=O)[C@H](COP(=O)(O)O)NC(=O)[C@H](Cc1ccc(O)cc1)NC(=O)[C@H](CO)NC(=O)[C@@H]1CCCN1)[C@@H](C)O)C(=O)N[C@@H](CO)C(=O)N1CCC[C@H]1C(=O)N[C@@H](CO)C(=O)O [1xS2P]
Kd [1]: 103 ± 4 µM

SMILES: C[C@@H](O)[C@H](NC(=O)[C@@H]1CCCN1C(=O)[C@H](COP(=O)(O)O)NC(=O)[C@H](Cc1ccc(O)cc1)NC(=O)[C@H](CO)NC(=O)[C@@H]1CCCN1C(=O)[C@H](CO)NC(=O)[C@@H](NC(=O)[C@@H]1CCCN1C(=O)[C@H](COP(=O)(O)O)NC(=O)[C@H](Cc1ccc(O)cc1)NC(=O)[C@H](CO)NC(=O)[C@@H]1CCCN1)[C@@H](C)O)C(=O)N[C@@H](CO)C(=O)N1CCC[C@H]1C(=O)N[C@@H](CO)C(=O)O [2xS2P]
Kd [2]: 8.4 ± 0.3 µM
Kd [3]: 4.8 ± 0.6 µM
Kd [4]: 22.4 ± 2.1 µM
Kd ([1]; PHF3 SPOC WT, fluorescence anisotropy, 90 nM labeled peptide titrated with SPOC domain, 25 mM Tris-Cl pH 7.4, 25 mM NaCl, 1 mM DTT, 20 °C, three independent experiments, read-out: Kd): 0.42 ± 0.02 µM

SMILES: C[C@@H](O)[C@H](NC(=O)[C@@H]1CCCN1C(=O)[C@H](CO)NC(=O)[C@H](Cc1ccc(O)cc1)NC(=O)[C@H](CO)NC(=O)[C@@H]1CCCN1C(=O)[C@H](COP(=O)(O)O)NC(=O)[C@@H](NC(=O)[C@@H]1CCCN1C(=O)[C@H](CO)NC(=O)[C@H](Cc1ccc(O)cc1)NC(=O)[C@H](CO)NC(=O)[C@@H]1CCCN1)[C@@H](C)O)C(=O)N[C@@H](COP(=O)(O)O)C(=O)N1CCC[C@H]1C(=O)N[C@@H](CO)C(=O)O [2xS5P]
Kd ([5]; read-out: Kd): 11.8 µM and 29.6 µM
Kd [6]: 20.6 ± 0.1 µM

SMILES: C[C@@H](O)[C@H](NC(=O)[C@@H]1CCCN1C(=O)[C@H](CO)NC(=O)[C@H](Cc1ccc(O)cc1)NC(=O)[C@H](COP(=O)(O)O)NC(=O)[C@@H]1CCCN1C(=O)[C@H](CO)NC(=O)[C@@H](NC(=O)[C@@H]1CCCN1C(=O)[C@H](CO)NC(=O)[C@H](Cc1ccc(O)cc1)NC(=O)[C@H](CO)NC(=O)[C@@H]1CCCN1)[C@@H](C)O)C(=O)N[C@@H](CO)C(=O)N1CCC[C@H]1C(=O)N[C@@H](COP(=O)(O)O)C(=O)O [2xS7P]
Kd ([5]; Kd): 23.5 ± 0.4 µM

Kd [7]: 23.3 ± 0.5 µM
SMILES: CC(C)C[C@H](NC(=O)[C@H](CC(C)C)NC(=O)[C@@H]1CCCN1C(=O)[C@H](C)NC(=O)[C@@H]1CCCN1C(=O)[C@H](CCC(=O)O)NC(=O)[C@H](CCCNC(=N)N)NC(=O)c1ccc2c(c1)C(=O)OC21c2ccc(O)cc2Oc2cc(O)ccc21)C(=O)N[C@@H](CO)C(=O)N[C@@H](C)C(=O)N[C@@H](CCC(N)=O)C(=O)N[C@@H](Cc1ccc(O)cc1)C(=O)N[C@@H](CCC(=O)O)C(=O)N[C@H](C(=O)N[C@@H](CC(C)C)C(=O)N[C@@H](COP(=O)(O)O)C(=O)N[C@@H](CC(=O)O)C(=O)N[C@@H](CO)C(=O)N[C@@H](CC(=O)O)C(=O)N[C@@H](CC(=O)O)C(=O)O)[C@@H](C)O [NCoR pS2436] (5FAM-REPAPLLSAQYETL[pS]DSDD-OH)

Kd [7]: 262 ± 74.2 µM
SMILES: CC(C)C[C@H](NC(=O)[C@H](CC(C)C)NC(=O)[C@@H]1CCCN1C(=O)[C@H](C)NC(=O)[C@@H]1CCCN1C(=O)[C@H](CCC(=O)O)NC(=O)[C@H](CCCNC(=N)N)NC(=O)c1ccc2c(c1)C(=O)OC21c2ccc(O)cc2Oc2cc(O)ccc21)C(=O)N[C@@H](CO)C(=O)N[C@@H](C)C(=O)N[C@@H](CCC(N)=O)C(=O)N[C@@H](Cc1ccc(O)cc1)C(=O)N[C@@H](CCC(=O)O)C(=O)N[C@H](C(=O)N[C@@H](CC(C)C)C(=O)N[C@@H](CO)C(=O)N[C@@H](CC(=O)O)C(=O)N[C@@H](CO)C(=O)N[C@@H](CC(=O)O)C(=O)N[C@@H](CC(=O)O)C(=O)O)[C@@H](C)O [NCoR] (5FAM-REPAPLLSAQYETLSDSDD-OH)

Kd ([5]; read-out: Kd): 21.5 ± 1.5 µM
SMILES: CSCC[C@H](NC(=O)c1ccc2c(c1)C(=O)OC21c2ccc(O)cc2Oc2cc(O)ccc21)C(=O)N[C@H](C(=O)N[C@@H](CC(N)=O)C(=O)N[C@@H](CCC(=O)O)C(=O)N[C@@H](CCC(=O)O)C(=O)N1CCC[C@H]1C(=O)N[C@@H](CC(C)C)C(=O)N1CCC[C@H]1C(=O)N[C@@H](CCCCN)C(=O)N[C@@H](CCCCN)C(=O)N[C@H](C(=O)N[C@@H](CCCNC(=N)N)C(=O)N[C@@H](CC(C)C)C(=O)N[C@@H](COP(=O)(O)O)C(=O)N[C@@H](CCC(=O)O)C(=O)N[C@H](C(=O)N[C@@H](CC(=O)O)C(=O)N[C@@H](Cc1ccccc1)C(=O)N[C@@H](CCCCN)C(=O)O)[C@@H](C)O)C(C)C)[C@@H](C)O [WTAP pS14] (5FAM-MTNEEPLPKKVRL[pS]ETDFK-OH)
